{"source": "patent US20260262643A1", "about": "“HERBICIDAL BENZOXAZINES” (FMC CORPORATION, priority 2022, published 2026)", "key": {"[1]": {"system": "rice", "test": "Test D flooded paddy test", "format": "in vivo, Oryza sativa", "conditions": "250 g ai/ha, applied to paddy water, visual rating after 13 to 14 days, scale 0 to 100 (0 no effect, 100 complete control)", "description": "(§1) Plant species in the flooded paddy test selected from barnyardgrass (Echinochloa crus-galli), ducksalad (Heteranthera limosa), rice (Oryza sativa), and sedge, umbrella (small-flower umbrella sedge, Cyperus difformis) were grown to the 2-leaf stage for testing. At time of treatment, test pots were flooded to 3 cm above the soil surface, treated by application of test compounds directly to the paddy water, and then maintained at that water depth for the duration of the test. Treated plants and controls were maintained in a greenhouse for 13 to 14 days, after which time all species were compared to controls and visually evaluated. Plant response ratings, summarized in Table D, are based on a scale of 0 to 100 where 0 is no effect and 100 is complete control. A dash (-) response means no test result."}, "[2]": {"system": "sedge, umbrella", "test": "Test D flooded paddy test", "format": "in vivo, Cyperus difformis", "conditions": "250 g ai/ha, applied to paddy water, visual rating after 13 to 14 days, scale 0 to 100 (0 no effect, 100 complete control)", "description": "as §1"}, "[3]": {"system": "ducksalad", "test": "Test D flooded paddy test", "format": "in vivo, Heteranthera limosa", "conditions": "250 g ai/ha, applied to paddy water, visual rating after 13 to 14 days, scale 0 to 100 (0 no effect, 100 complete control)", "description": "as §1"}, "[4]": {"system": "barnyardgrass", "test": "Test D flooded paddy test", "format": "in vivo, Echinochloa crus-galli", "conditions": "250 g ai/ha, applied to paddy water, visual rating after 13 to 14 days, scale 0 to 100 (0 no effect, 100 complete control)", "description": "as §1"}, "[5]": {"system": "corn", "test": "Test C postemergence", "format": "in vivo, Zea mays", "conditions": "125 g ai/ha, postemergence, 10 days; 0 to 100 scale, 0 no effect, 100 complete control", "summary_of_the_method": "(§2)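 Pre: seeds in loam/sand, directed soil spray. Post: 1–2 leaf plants, 2–10 cm. Cmpd in non-phytotoxic solvent + surfactant. Greenhouse 10 d; visual rating vs untreated, 0 = none, 100 = complete control.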"}, "[6]": {"system": "ryegrass, Italian", "test": "Test C postemergence", "format": "in vivo, Lolium multiflorum", "conditions": "125 g ai/ha, postemergence, 10 days; 0 to 100 scale, 0 no effect, 100 complete control", "summary_of_the_method": "as §2"}, "[7]": {"system": "kochia", "test": "Test C preemergence", "format": "in vivo, Bassia scoparia", "conditions": "Test C, preemergence, 125 g ai/ha; 0 to 100 scale (0 no effect, 100 complete control)", "summary_of_the_method": "as §2"}, "[8]": {"system": "ryegrass, Italian", "test": "Test C preemergence", "format": "in vivo, Lolium multiflorum", "conditions": "Test C, preemergence, 125 g ai/ha; 0 to 100 scale (0 no effect, 100 complete control)", "summary_of_the_method": "as §2"}, "[9]": {"system": "galium", "test": "Test C postemergence", "format": "in vivo, Galium aparine", "conditions": "125 g ai/ha, postemergence, 10 days; 0 to 100 scale, 0 no effect, 100 complete control", "summary_of_the_method": "as §2"}, "[10]": {"system": "pigweed, palmer", "test": "Test C preemergence", "format": "in vivo, Amaranthus palmeri", "conditions": "Test C, preemergence, 125 g ai/ha; 0 to 100 scale (0 no effect, 100 complete control)", "summary_of_the_method": "as §2"}, "[11]": {"system": "wheat", "test": "Test C preemergence", "format": "in vivo, Triticum aestivum", "conditions": "Test C, preemergence, 125 g ai/ha; 0 to 100 scale (0 no effect, 100 complete control)", "summary_of_the_method": "as §2"}, "[12]": {"system": "wheat", "test": "Test C postemergence", "format": "in vivo, Triticum aestivum", "conditions": "125 g ai/ha, postemergence, 10 days; 0 to 100 scale, 0 no effect, 100 complete control", "summary_of_the_method": "as §2"}, "[13]": {"system": "oat, wild", "test": "Test C postemergence", "format": "in vivo, Avena fatua", "conditions": "125 g ai/ha, postemergence, 10 days; 0 to 100 scale, 0 no effect, 100 complete control", "summary_of_the_method": "as §2"}, "[14]": {"system": "soybean", "test": "Test C preemergence", "format": "in vivo, Glycine max", "conditions": "Test C, preemergence, 125 g ai/ha; 0 to 100 scale (0 no effect, 100 complete control)", "summary_of_the_method": "as §2"}, "[15]": {"system": "horseweed", "test": "Test C postemergence", "format": "in vivo, Erigeron canadensis", "conditions": "125 g ai/ha, postemergence, 10 days; 0 to 100 scale, 0 no effect, 100 complete control", "summary_of_the_method": "as §2"}, "[16]": {"system": "corn", "test": "Test C preemergence", "format": "in vivo, Zea mays", "conditions": "Test C, preemergence, 125 g ai/ha; 0 to 100 scale (0 no effect, 100 complete control)", "summary_of_the_method": "as §2"}, "[17]": {"system": "blackgrass", "test": "Test C preemergence", "format": "in vivo, Alopecurus myosuroides", "conditions": "Test C, preemergence, 125 g ai/ha; 0 to 100 scale (0 no effect, 100 complete control)", "summary_of_the_method": "as §2"}, "[18]": {"system": "ragweed", "test": "Test C preemergence", "format": "in vivo, Ambrosia artemisiifolia", "conditions": "Test C, preemergence, 125 g ai/ha; 0 to 100 scale (0 no effect, 100 complete control)", "summary_of_the_method": "as §2"}, "[19]": {"system": "ragweed", "test": "Test C postemergence", "format": "in vivo, Ambrosia artemisiifolia", "conditions": "125 g ai/ha, postemergence, 10 days; 0 to 100 scale, 0 no effect, 100 complete control", "summary_of_the_method": "as §2"}, "[20]": {"system": "oat, wild", "test": "Test C preemergence", "format": "in vivo, Avena fatua", "conditions": "Test C, preemergence, 125 g ai/ha; 0 to 100 scale (0 no effect, 100 complete control)", "summary_of_the_method": "as §2"}, "[21]": {"system": "kochia", "test": "Test C postemergence", "format": "in vivo, Bassia scoparia", "conditions": "125 g ai/ha, postemergence, 10 days; 0 to 100 scale, 0 no effect, 100 complete control", "summary_of_the_method": "as §2"}, "[22]": {"system": "barnyardgrass", "test": "Test C preemergence", "format": "in vivo, Echinochloa crusgalli", "conditions": "Test C, preemergence, 125 g ai/ha; 0 to 100 scale (0 no effect, 100 complete control)", "summary_of_the_method": "as §2"}, "[23]": {"system": "pigweed, palmer", "test": "Test C postemergence", "format": "in vivo, Amaranthus palmeri", "conditions": "125 g ai/ha, postemergence, 10 days; 0 to 100 scale, 0 no effect, 100 complete control", "summary_of_the_method": "as §2"}, "[24]": {"system": "green foxtail", "test": "Test C preemergence", "format": "in vivo, Setaria viridis", "conditions": "Test C, preemergence, 125 g ai/ha; 0 to 100 scale (0 no effect, 100 complete control)", "summary_of_the_method": "as §2"}, "[25]": {"system": "barnyardgrass", "test": "Test C postemergence", "format": "in vivo, Echinochloa crusgalli", "conditions": "125 g ai/ha, postemergence, 10 days; 0 to 100 scale, 0 no effect, 100 complete control", "summary_of_the_method": "as §2"}, "[26]": {"system": "soybean", "test": "Test C postemergence", "format": "in vivo, Glycine max", "conditions": "125 g ai/ha, postemergence, 10 days; 0 to 100 scale, 0 no effect, 100 complete control", "summary_of_the_method": "as §2"}, "[27]": {"system": "blackgrass", "test": "Test C postemergence", "format": "in vivo, Alopecurus myosuroides", "conditions": "125 g ai/ha, postemergence, 10 days; 0 to 100 scale, 0 no effect, 100 complete control", "summary_of_the_method": "as §2"}}, "data": [{"smiles": "COC(=O)N(C)c1ncn(-c2cccc(C(=O)N3C[C@H](C)Oc4c(C)cccc43)c2)n1", "note": "[Compound 300]", "values": [{"measurement": "Plant response rating, Rice (Flood)", "setting": "[1]", "result": 0}, {"measurement": "Plant response rating, Sedge, Umbrella (Flood)", "setting": "[2]", "result": 0}, {"measurement": "Plant response rating, Ducksalad (Flood)", "setting": "[3]", "result": 0}, {"measurement": "Plant response rating, Barnyardgrass (Flood)", "setting": "[4]", "result": 0}]}, {"smiles": "COC[C@H]1CN(C(=O)c2cc(-n3cnc(C(C)(C)C)n3)ccc2OC)c2cccc(Cl)c2O1", "note": "[Compound 230]", "values": [{"measurement": "Plant response rating, Corn", "setting": "[5]", "result": 60}, {"measurement": "Plant response rating, Ryegrass, Italian", "setting": "[6]", "result": 60}, {"measurement": "Kochia plant response rating", "setting": "[7]", "result": 0}, {"measurement": "Ryegrass, Italian plant response rating", "setting": "[8]", "result": 80}, {"measurement": "Plant response rating, Galium", "setting": "[9]", "result": 100}, {"measurement": "Pigweed, Palmer plant response rating", "setting": "[10]", "result": 100}, {"measurement": "Wheat plant response rating", "setting": "[11]", "result": 30}, {"measurement": "Plant response rating, Wheat", "setting": "[12]", "result": 40}, {"measurement": "Plant response rating, Oat, Wild", "setting": "[13]", "result": 20}, {"measurement": "Plant response rating, Sedge, Umbrella (Flood)", "setting": "[2]", "result": 98}, {"measurement": "Soybean plant response rating", "setting": "[14]", "result": 90}, {"measurement": "Plant response rating, Horseweed", "setting": "[15]", "result": 40}, {"measurement": "Plant response rating, Ducksalad (Flood)", "setting": "[3]", "result": 70}, {"measurement": "Corn plant response rating", "setting": "[16]", "result": 20}, {"measurement": "Blackgrass plant response rating", "setting": "[17]", "result": 70}, {"measurement": "Ragweed plant response rating", "setting": "[18]", "result": 60}, {"measurement": "Plant response rating, Ragweed", "setting": "[19]", "result": 90}, {"measurement": "Plant response rating, Barnyardgrass (Flood)", "setting": "[4]", "result": 15}, {"measurement": "Oat, Wild plant response rating", "setting": "[20]", "result": 50}, {"measurement": "Plant response rating, Kochia", "setting": "[21]", "result": 90}, {"measurement": "Barnyardgrass plant response rating", "setting": "[22]", "result": 60}, {"measurement": "Plant response rating, Pigweed, Palmer", "setting": "[23]", "result": 100}, {"measurement": "Foxtail, Green plant response rating", "setting": "[24]", "result": 100}, {"measurement": "Plant response rating, Barnyardgrass", "setting": "[25]", "result": 60}, {"measurement": "Plant response rating, Soybean", "setting": "[26]", "result": 100}, {"measurement": "Plant response rating, Blackgrass", "setting": "[27]", "result": 40}]}]}
